Results as given in ChEMBL document CHEMBL1201862, “PubChem BioAssay data set” (2004).
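Compound exposure: 48 hours, 5 concentrations, 96-well plates. GI50 is the concentration that inhibits growth by half.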 Active and inactive are the calls of the source. Cut-off read from the data, not from the text of the source: active = GI50 up to about 1.1 µM and inactive = higher.

What was measured:
Assay in all cases: DTP human tumour cell line panel, 48 h
[1] = tested on: HCT-15
[2] = tested on: NCI-H226
[3] = tested on: UO-31
[4] = tested on: SK-OV-3
[5] = tested on: HOP-62
[6] = tested on: 786-0
[7] = tested on: OVCAR-4
[8] = tested on: SW-620
[9] = tested on: K562
[10] = tested on: UACC-257
[11] = tested on: A498
[12] = tested on: HOP-92
[13] = tested on: SF-295
[14] = tested on: COLO 205
[15] = tested on: CCRF-CEM
[16] = tested on: SNB-19
[17] = tested on: MOLT-4
[18] = tested on: RXF 393

Question: For `C=CCn1c(=O)c(C(=O)NC(=O)OCC)cn(C2CCCCC2)c1=O`, which GI50 [1] is on record?
Answer: > 100 µM

Question: And the GI50 [2]?
Answer: > 100 µM (inactive)

Question: What about the GI50 [3] of the same molecule?
Answer: > 100 µM (inactive)

Question: What about the GI50 [4] of the same molecule?
Answer: > 100 µM (inactive)

Question: And the GI50 [5]?
Answer: > 100 µM (inactive)

Question: What about the GI50 [6] of the same molecule?
Answer: > 100 µM (inactive)

Question: What about the GI50 [7] of the same molecule?
Answer: > 100 µM (inactive)

Question: What about the GI50 [8] of the same molecule?
Answer: > 100 µM (inactive)

Question: What about the GI50 [9] of the same molecule?
Answer: > 100 µM (inactive)

Question: What about the GI50 [10] of the same molecule?
Answer: > 100 µM (inactive)

Question: What about the GI50 [11] of the same molecule?
Answer: > 100 µM (inactive)

Question: And the GI50 [12]?
Answer: > 100 µM (inactive)

Question: And the GI50 [13]?
Answer: > 100 µM (inactive)

Question: And the GI50 [14]?
Answer: > 100 µM (inactive)

Question: And the GI50 [15]?
Answer: > 100 µM (inactive)

Question: And the GI50 [16]?
Answer: > 100 µM (inactive)

Question: What about the GI50 [17] of the same molecule?
Answer: > 100 µM (inactive)

Question: With `[O-][S+]1c2ccccc2N=C(c2cccs2)CC1c1ccccc1O` (stereo not given) as the molecule, how does the GI50 [1] read?
Answer: > 100 µM

Question: And the GI50 [2]?
Answer: > 100 µM (inactive)

Question: What about the GI50 [3] of the same molecule?
Answer: > 100 µM (inactive)

Question: And the GI50 [4]?
Answer: > 100 µM (inactive)

Question: And the GI50 [5]?
Answer: 97.5 µM (inactive)

Question: What about the GI50 [6] of the same molecule?
Answer: > 100 µM (inactive)

Question: What about the GI50 [7] of the same molecule?
Answer: > 100 µM (inactive)

Question: What about the GI50 [8] of the same molecule?
Answer: > 100 µM (inactive)

Question: And the GI50 [9]?
Answer: > 100 µM (inactive)

Question: What about the GI50 [10] of the same molecule?
Answer: > 100 µM (inactive)

Question: And the GI50 [11]?
Answer: 25.4 µM (inactive)

Question: What about the GI50 [18] of the same molecule?
Answer: 63.1 µM (inactive)

Question: And the GI50 [13]?
Answer: 70.3 µM (inactive)

Question: What about the GI50 [14] of the same molecule?
Answer: > 100 µM (inactive)

Question: What about the GI50 [15] of the same molecule?
Answer: > 100 µM (inactive)

Question: What about the GI50 [16] of the same molecule?
Answer: > 100 µM (inactive)

Question: What about the GI50 [17] of the same molecule?
Answer: > 100 µM (inactive)

Question: `O=C(O)OC12CCCCCC1C(=O)C1CCCCC12` (stereo not given) was tested. Which GI50 [1] did it give?
Answer: 78.2 µM

Question: And the GI50 [2]?
Answer: > 100 µM (inactive)

Question: And the GI50 [3]?
Answer: > 100 µM (inactive)

Question: And the GI50 [4]?
Answer: > 100 µM (inactive)

Question: What about the GI50 [5] of the same molecule?
Answer: > 100 µM (inactive)

Question: And the GI50 [6]?
Answer: > 100 µM (inactive)

Question: And the GI50 [7]?
Answer: > 100 µM (inactive)

Question: And the GI50 [8]?
Answer: > 100 µM (inactive)

Question: What about the GI50 [9] of the same molecule?
Answer: 42 µM (inactive)

Question: And the GI50 [10]?
Answer: > 100 µM (inactive)

Question: And the GI50 [18]?
Answer: 39.3 µM (inactive)

Question: And the GI50 [13]?
Answer: > 100 µM (inactive)

Question: What about the GI50 [14] of the same molecule?
Answer: > 100 µM (inactive)

Question: And the GI50 [15]?
Answer: > 100 µM (inactive)

Question: What about the GI50 [16] of the same molecule?
Answer: 89.5 µM (inactive)

Question: And the GI50 [17]?
Answer: 46 µM (inactive)

Question: Which results are given for `O=C(CCN1CCCC1)CC(c1ccccc1)c1c(O)c2ccccc2oc1=O` (stereo not given)?
Answer: GI50 [1]: > 100 µM; GI50 [2]: > 100 µM (inactive); GI50 [3]: > 100 µM (inactive); GI50 [4]: > 100 µM (inactive); GI50 [5]: > 100 µM (inactive); GI50 [6]: > 100 µM (inactive); GI50 [7]: > 100 µM (inactive); GI50 [8]: > 100 µM (inactive); GI50 [9]: > 100 µM (inactive); GI50 [10]: > 100 µM (inactive); GI50 [18]: > 100 µM (inactive); GI50 [12]: 20.1 µM (inactive); GI50 [13]: > 100 µM (inactive); GI50 [14]: > 100 µM (inactive); GI50 [15]: > 100 µM (inactive); GI50 [16]: > 100 µM (inactive); GI50 [17]: > 100 µM (inactive)

Question: What does the source list for `Cn1c(N)nc(=O)c2c1N(C1OC(CO)C(O)C1O)CN2Cc1ccccc1` (stereo not given)?
Answer: GI50 [1]: > 100 µM; GI50 [2]: > 100 µM (inactive); GI50 [3]: > 100 µM (inactive); GI50 [4]: > 100 µM (inactive); GI50 [5]: > 100 µM (inactive); GI50 [6]: > 100 µM (inactive); GI50 [7]: > 100 µM (inactive); GI50 [8]: > 100 µM (inactive); GI50 [9]: > 100 µM (inactive); GI50 [10]: > 100 µM (inactive); GI50 [11]: > 100 µM (inactive); GI50 [18]: > 100 µM (inactive); GI50 [12]: > 100 µM (inactive); GI50 [13]: > 100 µM (inactive); GI50 [14]: > 100 µM (inactive); GI50 [16]: > 100 µM (inactive); GI50 [17]: > 100 µM (inactive)

Question: Which GI50 [1] does the source give for `COc1cccc2c1N[S@](=O)S2` here?
Answer: 82.4 µM

Question: And the GI50 [2]?
Answer: > 100 µM (inactive)

Question: And the GI50 [3]?
Answer: 42 µM (inactive)

Question: What about the GI50 [4] of the same molecule?
Answer: > 100 µM (inactive)

Question: And the GI50 [6]?
Answer: > 100 µM (inactive)

Question: And the GI50 [8]?
Answer: > 100 µM (inactive)

Question: And the GI50 [9]?
Answer: 46 µM (inactive)

Question: What about the GI50 [10] of the same molecule?
Answer: > 100 µM (inactive)

Question: What about the GI50 [12] of the same molecule?
Answer: > 100 µM (inactive)

Question: What about the GI50 [13] of the same molecule?
Answer: 95.7 µM (inactive)

Question: And the GI50 [15]?
Answer: 36.7 µM (inactive)

Question: And the GI50 [16]?
Answer: 38.1 µM (inactive)

Question: And the GI50 [17]?
Answer: 42.1 µM (inactive)

Question: For `O=C1C[C@@H]2[C@@H](CCC23CC3)N1`, which GI50 [2] is on record?
Answer: > 100 µM (inactive)

Question: What about the GI50 [3] of the same molecule?
Answer: > 100 µM (inactive)

Question: What about the GI50 [4] of the same molecule?
Answer: > 100 µM (inactive)

Question: What about the GI50 [5] of the same molecule?
Answer: > 100 µM (inactive)

Question: And the GI50 [6]?
Answer: > 100 µM (inactive)

Question: And the GI50 [7]?
Answer: > 100 µM (inactive)

Question: And the GI50 [8]?
Answer: > 100 µM (inactive)

Question: And the GI50 [9]?
Answer: > 100 µM (inactive)

Question: And the GI50 [10]?
Answer: > 100 µM (inactive)

Question: And the GI50 [11]?
Answer: > 100 µM (inactive)

Question: And the GI50 [18]?
Answer: > 100 µM (inactive)

Question: What about the GI50 [13] of the same molecule?
Answer: > 100 µM (inactive)

Question: And the GI50 [14]?
Answer: > 100 µM (inactive)

Question: And the GI50 [15]?
Answer: > 100 µM (inactive)

Question: And the GI50 [16]?
Answer: > 100 µM (inactive)

Question: And the GI50 [17]?
Answer: > 10 µM (inactive)

Question: Which results are given for `Cc1ccc(C[P+]2(c3ccccc3)CCCCC2)cc1.[O-][Cl+3]([O-])([O-])[O-]`?
Answer: GI50 [1]: 51.6 µM; GI50 [2]: 48.1 µM (inactive); GI50 [3]: > 100 µM (inactive); GI50 [4]: 60.8 µM (inactive); GI50 [5]: 99.8 µM (inactive); GI50 [6]: 47.4 µM (inactive); GI50 [7]: 41.4 µM (inactive); GI50 [8]: 33.3 µM (inactive); GI50 [9]: 34.8 µM (inactive); GI50 [10]: 6.28 µM (inactive); GI50 [11]: > 100 µM (inactive); GI50 [18]: > 100 µM (inactive); GI50 [13]: 44.2 µM (inactive); GI50 [14]: 14 µM (inactive); GI50 [15]: 38 µM (inactive); GI50 [16]: 32.3 µM (inactive); GI50 [17]: 33 µM (inactive)
